From patent US7579365B2 (ZIOPHRAM Oncology, Inc., priority 1998, dated 2009)
In brackets after ≈: the same amount, converted by molar mass. Entries after “also recorded” stand apart in the source; their conditions may differ. Like-named read-outs stand apart in the source and are kept apart here.

What was measured:
[1] = system: KB cell line; assay: XTT proliferation test/cytotoxicity test, KB cell line; format: cell-based; details: KB tumor cells; for EC50: Homo sapiens, KB, read-out: XTT EC50 KB
Procedure: (§1) In this test system, the effect of substances on the proliferation behavior of tumor cell lines is investigated. In the course of this, the cytotoxic potential of these substances is determined. The test method is described in Scudiero et al. 1988, Cancer Res. 48, 4827.
(§2) The following tumor cell lines were employed in the investigations:
(§3) The KB cell line an epidermal carcinoma of the oral cavity,
(§4) the L1210 cell line a lymphatic leukemia of the mouse, the LNCAP cell line a prostate carcinoma and the SK-OV-3 cell line an ovarian carcinoma.

[2] = system: SK-OV-3; assay: In vivo % WHI printed in the SK-OV-3 column of Table 3
[3] = system: DNA; assay: DNA fragmentation; details: after administration
[4] = system: Dunning tumor; assay: Dunning tumor in the rat; format: in vivo; details: repeated oral administration, 7×100 mg/kg and 7×147 mg/kg p.o.
[5] = system: MCF-7; assay: Hollow fiber assay on the nude mouse, MCF-7; format: in vivo
Text: (§5) In the hollow fiber assay, both compounds were almost equally strongly active, while on L 1210 D-24851 was markedly more strongly active after oral and intraperitoneal administration than D-24241.

[6] = system: SK-OV-3 cell line; assay: XTT proliferation test/cytotoxicity test, SK-OV-3 cell line; format: cell-based; details: for EC50: Homo sapiens, SK-OV-3, SK-OV-3 tumor cells, read-out: XTT EC50 SK-OV-3
Procedure: as §1, §2, §3, §4

[7] = system: L1210; assay: L1210 leukemia model in vivo (% ILS, survival time); set-up: species or system mouse; details: for Antitumor action on L 1210 (mouse): oral and intraperitoneal administration
Text: as §5

[8] = in vivo
[9] = Hematopoiesis test; format: in vivo; details: intraperitoneal administration; listed as D-24851
[10] = system: L1210; assay: Hollow fiber assay on the nude mouse, L1210; format: in vivo
Text: as §5

[11] = system: LNCAP cell line; assay: XTT proliferation test/cytotoxicity test, LNCAP cell line; format: cell-based; details: LNCaP tumor cells; for EC50: Homo sapiens, read-out: XTT EC50 LNCaP
Procedure: as §1, §2, §3, §4

[12] = system: L1210 cell line; assay: XTT proliferation test/cytotoxicity test, L1210 cell line; format: cell-based, mouse; details: for EC50: Mus musculus, L1210, L1210 tumor cells, read-out: XTT EC50 L1210; for XTT EC50 L1210: L1210 tumor cells
Procedure: as §1, §2, §3, §4

[13] = in vivo; for Tox. i.p.: ip
[14] = system: KB; assay: KB test on the nude mouse (% WHI); format: in vivo; details: for % WHI: KB
[15] = system: KB; assay: Hollow fiber assay on the nude mouse, KB; format: in vivo
Text: as §5

[16] = system: L1210; assay: L1210 leukemia model in vivo (% ILS, survival time); details: Mus musculus, L1210, iv

O=C(Nc1ccncc1)C(=O)c1cn(Cc2ccc(Cl)cc2)c2ccccc12 [Example 13, N-(Pyridin-4-yl)-[1-(4-chlorobenzyl)indol-3-yl]glyoxylamide]
EC50 [1]: ~0.017 µg/mL (≈ 0.0436 µM)
% WHI ([2]; 2 × 215 mg/kg po): 18%
% WHI ([2]; 7 × 46 mg/kg ip): 33%
DNA fragmentation [3]: no DNA fragmentation
Tumor growth in the Dunning tumor ([4]; listed as D24851): stoppage of tumor growth and in some animals even tumor regression
Tumor growth in the Dunning tumor ([4]; listed as D-24851): Stoppage of tumor growth, in some animals even tumor regression
Hollow fiber intraperitoneal % INH ([5]; 4 × 46 mg/kg ip): 38%
Hollow fiber subcutaneous % INH ([5]; 4 × 46 mg/kg ip): 47%
Hollow fiber intraperitoneal % INH ([5]; 4 × 147 mg/kg ip): 68%
Hollow fiber subcutaneous % INH ([5]; 4 × 147 mg/kg ip): 68%
EC50 [6]: ~0.03 µg/mL (≈ 0.077 µM)
ILS at 464 mg/kg ([7]; Mus musculus, L1210, ip, 1 × 464 mg/kg ip): 18%
ILS at 681 mg/kg ([7]; Mus musculus, L1210, ip, 1 × 681 mg/kg ip): 0%
ILS at 147 mg/kg ([7]; Mus musculus, L1210, ip, 4 × 147 mg/kg ip): 94%
ILS at 215 mg/kg ([7]; Mus musculus, L1210, ip, 4 × 215 mg/kg ip): 13%
ILS at 100 mg/kg ([7]; Mus musculus, L1210, ip, 7 × 100 mg/kg ip): 35%
ILS at 147 mg/kg ([7]; Mus musculus, L1210, ip, 7 × 147 mg/kg ip): 59%
ILS at 681 mg/kg ([7]; Mus musculus, L1210, po, 1 × 681 mg/kg po): 22%
ILS at 215 mg/kg ([7]; Mus musculus, L1210, po, 4 × 215 mg/kg po): 31%
ILS at 100 mg/kg ([7]; Mus musculus, L1210, po, 7 × 100 mg/kg po): 63%
ILS at 147 mg/kg ([7]; Mus musculus, L1210, po, 7 × 147 mg/kg po): 75%
Prolongation of the survival time, L1210 ([7]; intraperitoneal or oral administration, 100 and 147 mg/kg multiple dose): distinct dose-dependent prolongation of the survival time
Antitumor action on L 1210 (mouse) [7]: strong dose-dependent antitumor action
LD50 ([8]; LD50 1 × per os): 1000 mg/kg
LD50 ([8]; ip, LD50 1 × ip): > 1000 mg/kg
Blood parameters in the hematopoiesis test [9]: none of the blood parameters investigated were modified; also recorded: none of the blood parameters investigated were altered
Hollow fiber intraperitoneal % INH ([10]; 4 × 46 mg/kg ip): 56%
Hollow fiber subcutaneous % INH ([10]; 4 × 46 mg/kg ip): no action
Hollow fiber intraperitoneal % INH ([10]; 4 × 147 mg/kg ip): 60%
Hollow fiber subcutaneous % INH ([10]; 4 × 147 mg/kg ip): 67%
EC50 ([11]; LNCaP): ~0.03 µg/mL (≈ 0.077 µM)
EC50 [12]: ~0.017 µg/mL (≈ 0.0436 µM)
LD50 1 × per os [13]: >1000 mg/kg
Tox. i.p. [13]: ≈1000 i.p. mg/kg
Antitumor action in the KB test on the nude mouse [14]: antitumor action
Hollow fiber subcutaneous % INH ([15]; 4 × 46 mg/kg ip): 44%
Hollow fiber intraperitoneal % INH ([15]; 4 × 147 mg/kg ip): 12%
Hollow fiber subcutaneous % INH ([15]; 4 × 147 mg/kg ip): 35%

CC(=O)O[C@H]1C(=O)[C@@]2(C)[C@H]([C@H](OC(=O)c3ccccc3)[C@]3(O)C[C@H](OC(=O)[C@H](O)[C@@H](NC(=O)c4ccccc4)c4ccccc4)C(C)=C1C3(C)C)[C@]1(OC(C)=O)CO[C@@H]1C[C@@H]2O [Taxol, reference compound]
EC50 [1]: < 0.003 µg/mL
ILS at 14.7 mg/kg ([16]; 1 × 14.7 mg/kg i.v.): 22%
ILS at 46.4 mg/kg ([16]; 1 × 46.4 mg/kg i.v.): 61%
EC50 [6]: < 0.003 µg/mL
EC50 ([11]; LNCaP): < 0.003 µg/mL
EC50 [12]: < 0.003 µg/mL
Tox. i.p. [13]: ≈158 i.p. mg/kg

O=C(Nc1ccncc1)C(=O)c1cn(Cc2ccc(F)cc2)c2ccccc12 [Example 1, N-(Pyridin-4-yl)-[1-(4-fluorobenzyl)indol-3-yl]glyoxylamide]
EC50 [1]: 0.02 µg/mL (≈ 0.0536 µM)
XTT EC50 KB ([1]; listed as D-24241): KB ≈ 0.02 μg/ml
Hollow fiber intraperitoneal % INH ([5]; 4 × 15.8 mg/kg ip): no action
Hollow fiber subcutaneous % INH ([5]; 4 × 15.8 mg/kg ip): 33%
EC50 [6]: 0.17 µg/mL (≈ 0.455 µM)
XTT EC50 SK-OV-3 ([6]; SK-OV-3 tumor cells, listed as D-24241): SKOV3 ≈ 0.17 μg/ml
% ILS L1210 ([7]; 19 × 50 mg/kg per os, listed as D-24241, 50 mg/kg): 50% ILS
ILS at 464 mg/kg ([7]; Mus musculus, L1210, po, 1 × 464 mg/kg per os): 44%
ILS at 50 mg/kg ([7]; Mus musculus, L1210, po, 19 × 50 mg/kg per os): 50%
Antitumor action on L 1210 (mouse) [7]: strong dose-dependent antitumor action
LD50 ([8]; LD50 1 × per os): > 1000 mg/kg
LD50 ([8]; ip, LD50 1 × ip): ~158 mg/kg
Hollow fiber intraperitoneal % INH ([10]; 4 × 15.8 mg/kg ip): 43%
Hollow fiber subcutaneous % INH ([10]; 4 × 15.8 mg/kg ip): 68%
EC50 [11]: > 31.6 µg/mL
XTT EC50 LNCaP ([11]; listed as D 24241): >31.6 µg/mL
XTT EC50 LNCaP ([11]; listed as D-24241): LNCAP > 31.6 μg/ml
XTT EC50 L1210 ([12]; listed as 1 (D 24241)): 0.170 µg/mL
XTT EC50 L1210 ([12]; listed as D 24241): ≈0.17 μg/ml
XTT EC50 L1210 ([12]; listed as D-24241): L1210 ≈ 0.07 μg/ml
Tox. i.p. [13]: ≈158 i.p. mg/kg
% WHI ([14]; 2 × 46.4 mg/kg ip): 22%
% WHI ([14]; 2 × 215 mg/kg po): 47%
Antitumor action in the KB test on the nude mouse [14]: antitumor action
Hollow fiber intraperitoneal % INH ([15]; 4 × 15.8 mg/kg ip): 46%
Hollow fiber subcutaneous % INH ([15]; 4 × 15.8 mg/kg ip): 81%
